From paper PMC11061149, “Protein mimetic 2D FAST rescues alpha synuclein aggregation mediated early and post disease Parkinson’s phenotypes” (Nature Communications, 2024)
“And” between values parts separate entries of the source, which are not always exact repeats. Equal values may be shown once.

Tests used:
Format in all cases: biochemical
αS aggregation = target: T1, αS aggregation (Homo sapiens, UniProt P37840); experiment: SDS-PAGE gel shift assay of soluble and insoluble αS fractions; conditions: for αS band intensity, Total: individual trials
T1 construct: made in house; host or cells: E. coli BL21(DE3)
Source text: The inhibition of αS aggregation by NS41 was also confirmed by TEM images, which show an abundance (Supplementary Fig. 3a) and low amount (Supplementary Fig. 3b) of αS fibers in the absence and presence of NS41, respectively. We used SDS-PAGE (Sodium dodecyl sulfate polyacrylamide gel electrophoresis) as a complementary assay to validate ThT results and to further characterize the antagonist activity of the monopyridyls against αS aggregation. We used a total of four monopyridyls with varying antagonist activity against αS aggregation for the SDS-PAGE assay. The solutions of αS (±monopyridyls) were centrifuged and the soluble and insoluble fractions were subjected to SDS-PAGE analysis as reported earlier (Fig. 2d, Supplementary Fig. 4a, see details in methods section). The band intensities of the gels in SDS-PAGE assay were quantified using ImageJ software. In the absence of ligands, ~12% of αS was found in the soluble fraction and the rest was found in the insoluble fraction (Fig. 2d, Supplementary Fig. 4a, b). In the presence of NS41 at molar ratios of 1:1 and 2:1 (NS41:αS), 48% and 73% of αS protein were found in the soluble fraction, respectively, and the rest of αS protein was found in the insoluble fraction (Fig. 2d, Supplementary Fig. 4a, b). […] The antagonist activity of the monopyridyls corroborated well from both ThT and the SDS-PAGE assays (Fig. 2a–d, Supplementary Fig. 4a, b). The higher the antagonist activity of monopyridyls against αS aggregation, the lower the ThT intensity and the higher the amount of αS remained in the soluble fraction (Fig. 2a–d, Supplementary Fig. 4a, b). […] It is important to note that NS41 contains a carboxyl (COOH) functional group side chain. […] We have also shown in that work that the foldamer binds to the N-terminus of αS because of its negatively charged COOH functional group interaction with the positively charged lysine residues of αS[24]. […] Additionally, we have also shown that the OPs with the COOH functional group are very effective inhibitors of aggregation of other amyloid proteins that contain lysine amino acid via the formation of salt bridges[30]–[34].
An αS solution (100 µM) was prepared in PBS with or without ligands and shaken ([…], 37 °C) until the fluorescence plateaued, as observed using the ThT aggregation assay, indicative of the aggregation of αS as a control (four days for most experiments unless otherwise mentioned). The solutions were separated into soluble and insoluble fractions by centrifugation at 22,000 × g for 20 min. The fractions were diluted in 2×Laemmli protein sample loading buffer (Containing 2.1% SDS, Bio-rad, Hercules, CA), boiled at 95 °C for 5 min, and ran on a 12% Mini-PROTEAN precast protein gel (Bio-rad, Hercules, CA). The gel was visualized using ChemiDoc MP Imaging System (Bio-rad, Hercules, CA) and band intensity was quantified using Image Lab image acquisition and analysis software (Bio-rad, Hercules, CA). Densitometry values were averaged from three technical replicates and reported with the error bars representing their standard deviations.

αS fibers = target: T2, αS fibers (Homo sapiens, UniProt P37840); experiment: Transmission electron microscopy (TEM) of αS solutions; conditions: 100 µM αS aggregated for four days with ligand
T2 construct: made in house; host or cells: E. coli BL21(DE3)
Experimental: Transmission Electron Microscopy was used to visualize protein assemblies after aggregation experiments as previously described. Briefly, aliquots (5 μL) of αS solutions (with or without ligands) were applied on glow-discharged carbon-coated 300-mesh copper grids for 2 min and dried using Kimwipes (Kimberly-Clark, Irving, TX). The copper grids were negatively stained for 1 min with uranyl acetate (0.75%, w/v). The micrographs were taken on an FEI Tecnai G2 Biotwin TEM at 80 kV accelerating voltages.

[1] = target: T3, α-Synuclein (αS) aggregation (Homo sapiens, UniProt P37840); experiment: Thioflavin T (ThT) dye-based αS aggregation assay (de novo); conditions: for ThT intensity relative to Synuclein alone (=1), Average / ThT intensity relative to Synuclein alone (=1), Trial 1-3: 100 µM αS, four days; for remaining activity at 100 µM: 96 h, pH 6.5, 100 μM αS, 1×PBS pH 6.5, four days, ligand:αS equimolar, read-out: ThT signal/intensity relative to αS alone (100%)
T3 construct: made in house; host or cells: E. coli BL21(DE3)
Experimental: We used a 2D FAST approach in OPs to identify potent antagonists of the aggregation of αS. In this approach, we start with a library of monopyridyls with different functional groups. The library of monopyridyls was synthesized using 2-chloro-6-methyl-3-nitropyridine as a common precursor, which was treated with primary alcohols with diverse side chain functionalities via a one-pot reaction (Fig. 1B, a and see Supplementary information for synthetic details). […] We selected the side chains containing hydrophobic, polar, positively charged, and negatively charged functional groups, which mimic the side chains of the amino acids (Fig. 1C). […] The monopyridyl library was screened against the aggregation of 100 μM αS at an equimolar ratio using Thioflavin T (ThT) dye-based aggregation assay (Fig. 1B, b). […] The chloro-dipyridyl was reacted with a library of primary amines/thiols to synthesize a library of dipyridyls (Fig. 1B, e) using a one-pot reaction. […] However, a few dipyridyls required column chromatography to separate them from the starting material side chains because of their very high boiling point (7 out of 21 dipyridyls required column, Supplementary Fig. 1). […]
Aggregation Kinetics were measured according to a previously described protocol. […] The solutions were placed in a ThermoMixer (Eppendorf, Hamberg, Germany) at 37 °C with constant shaking at 1300 rpm (rpm). At different time points, 5 μL aliquots of each αS solution were added to 95 μL PBS containing 50 μM Thioflavin T (ThT) dye in a Costar black 96 well plate (Corning Inc., Kennebunk, ME). ThT fluorescence intensity was measured (λex = 450 nm and λem = 490 nm) on an Infinite M200PRO plate reader (Tecan, Männedorf, Switzerland), and plotted against time to give a sigmoidal curve typical of amyloid aggregation. For the single point ThT aggregation, 100 μM αS, in the absence and presence of ligands, was aggregated under the described conditions and the ThT fluorescence was reported at 96 h. The reported ThT intensity values are the average of each experiment conducted in triplicate, with the error bars representing the standard deviations or standard error of the mean (s.e.m.) as described in the main manuscript.

## Cc1ccc([N+](=O)[O-])c(OCC(=O)O)n1 [NS41]
αS aggregation; 100 µM αS, four days, NS41:αS 2:1
  αS protein found in the soluble fraction: 73%
αS aggregation; 100 µM αS, four days, ligand:αS 1:1
  αS protein found in the soluble fraction: 48%
αS aggregation; sheet S4B, ligand 1 eq.
  αS band intensity, Total, Average: 100
  αS band intensity, Total: 95 and 102.5 (2×)
αS aggregation; sheet S4B, ligand 2 eq.
  αS band intensity, Total, Average: 100
  αS band intensity, Total: 96 and 102 (2×)
αS fibers
  αS fibers seen in TEM images, in words: low amount
[1]; 100 μM αS, 1×PBS pH 6.5, NS41/αS 2:1
  ThT signal relative to αS alone (100%): 17%
[1]; equimolar
  ThT intensity relative to Synuclein alone (=1), Average: 0.2889
[1]; equimolar, individual trials
  ThT intensity relative to Synuclein alone (=1), Trial 1-3: 0.2946 and 0.2756 and 0.2964
[1]; ligand 2 mole Eq.
  ThT intensity relative to Synuclein alone (=1), Average: 0.162
[1]; ligand 2 mole Eq., individual trials
  ThT intensity relative to Synuclein alone (=1), Trial 1-3: 0.1784 and 0.1666 and 0.1411
[1]
  remaining activity at 100 µM: 29%

## Cc1ccc(NC(=O)c2ccc([N+](=O)[O-])c(NCC3CCCCC3)n2)c(OCC(=O)O)n1 [NS55]
αS aggregation; 100 µM αS, four days, equimolar
  amount of αS in the insoluble fraction: 26%
αS aggregation; sheet S5B
  αS band intensity, Total, Average: 100
  αS band intensity, Total: 95.6 and 105.4 and 99
αS aggregation; substoichiometric ratio αS:ligand 1:0.5
  distribution of αS between soluble and insoluble fraction, in words: a significant amount of αS protein was found in the insoluble form
αS fibers
  αS fibers seen in TEM images, in words: no
[1]; 100 µM αS + equimolar ligand, aggregation profile Fig. 2h, time 0 hr
  ThT fluorescence intensity, Average: 638.333
[1]; 100 μM αS, equimolar
  attenuation of the ThT signal of αS aggregation: 96%
[1]; equimolar
  ThT intensity relative to Synuclein alone (=1), Average: 0.04101
[1]; equimolar, individual trials
  ThT intensity relative to Synuclein alone (=1), Trial 1-3: 0.05227 and 0.03887 and 0.03187
[1]; substoichiometric αS:ligand 1:0.5
  ThT intensity relative to Synuclein alone (=1), Average: 0.7474
[1]; substoichiometric αS:ligand 1:0.5, individual trials
  ThT intensity relative to Synuclein alone (=1), Trial 1-3: 0.775 and 0.733 and 0.7343
[1]
  remaining activity at 100 µM: 4%
[1]; Fig. 2h profile, time 12 hr
  ThT fluorescence intensity, Average: 699.667
[1]; Fig. 2h profile, time 24 hr
  ThT fluorescence intensity, Average: 689.333
[1]; Fig. 2h profile, time 48 hr
  ThT fluorescence intensity, Average: 722.667
[1]; Fig. 2h profile, time 72 hr
  ThT fluorescence intensity, Average: 793
[1]; Fig. 2h profile, time 96 hr
  ThT fluorescence intensity, Average: 631.333
[1]; Fig. 2h profile, time 144 hr
  ThT fluorescence intensity, Average: 658.333
[1]; Fig. 2h profile, time 192 hr
  ThT fluorescence intensity, Average: 603.333
[1]; Fig. 2h profile, time 300 hr
  ThT fluorescence intensity, Average: 570.333
[1]; sheet S5A, Synuclein alone about 1
  Relative ThT intensity of αS aggregation, Average: 0.04101
[1]; sheet S5A, Synuclein alone about 1, individual trials
  Relative ThT intensity of αS aggregation: 0.05227 and 0.03887 and 0.03187
